The values below come from ChEMBL document CHEMBL5230122, “Natural products and other inhibitors of F1FO ATP synthase” (Eur J Med Chem, 2020).

Square brackets hold non-standard residues; d marks the D form. Peptide text beside a SMILES is read from it. * marks the point of attachment. X3 = CC(C)C[C@@H](CN1CCC[N+]2=C1CCC2)N*; X4 = CC(C)C[C@@H](C[N+]1=C2CCCN2CCC1)N*; Pip = O=C(O)[C@@H]1CCCCN1; Iva = CC[C@](C)(N)C(=O)O; Aib = CC(C)(N)C(=O)O; βAla = NCCC(=O)O

Data set [1] deals with GBM. Description: Anticancer activity against human GBM cells carrying high-throughput GBM sphere assessed as reduction in cell viability incubated for 96 hrs by Cell-Titer-Glo assay. It counts as functional, cell-based.
Data set [2] can be described thus: Antiproliferative activity against human Keratinocyte assessed as inhibition of cell proliferation incubated for 2 days by Beckman Coulter analysis. It counts as functional, cell-based. Conditions: 48 h.
Data set [3] has as its system SNU-398. Description: Anticancer activity against human SNU-398 cells expressing high level of SALL4 assessed as reduction in cell viability incubated for 72 hrs by CellTiter-Glo assay. It counts as functional, cell-based. Conditions: SNU-398, 72 h. A general note: ATP-based viability assays read luminescence as a measure of living cells.
The test system of data set [4] is HeLa. Description: Cytotoxicity against human HeLa cells assessed as reduction in cell viability. It counts as functional, cell-based.
Data set [5] is described as follows: Inhibition of bovine heart mitochondrial F0F1-ATP synthase assessed as rate of NADH oxidation in presence of NADH for 30 mins by colorimetric assay. It counts as mitochondria, Bos taurus, Mitochondria.
Data set [6] relates to HL-60. Description: Cytotoxicity against human HL-60 cells assessed as reduction in cell viability. It counts as functional, cell-based.
In data set [7] the test system is HL-60. Description: Anticancer activity against human HL-60 cells assessed as reduction in cell viability incubated for 72 hrs by CCK-8 assay. It counts as functional, cell-based. The note with it: HL-60, 72 h. Background: Tetrazolium dyes change colour on reduction, which living cells bring about.
For data set [8], the system named is NCI-H1299. Description: Anticancer activity against human NCI-H1299 cells assessed as reduction in cell viability incubated for 72 hrs by CCK-8 assay. It counts as functional, cell-based. Conditions: NCI-H1299, 72 h.
The subject of data set [9] is LoVo. Description: Anticancer activity against human LoVo cells assessed as reduction in cell viability incubated for 72 hrs by CCK-8 assay. It counts as functional, cell-based.
Data set [10] has as its system MCF7. Description: Anticancer activity against human MCF7 cells assessed as reduction in cell viability incubated for 72 hrs by CCK-8 assay. It counts as functional, cell-based. Conditions: MCF7, 72 h.
Data set [11] is described as follows: Cytotoxicity against mouse L929 cells assessed as reduction in cell viability. It counts as toxicity, cell-based.
The test system of data set [12] is HCT-116. Description: Antiproliferative activity against human HCT-116 cells assessed as reduction in cell viability incubated for 72 hrs by MTT assay. It counts as functional, cell-based. Conditions: HCT-116, 72 h.
For data set [13], the system named is N2a. Description: Antiproliferative activity against mouse Neuro2a cells assessed as reduction in cell viability incubated for 48 hrs by MTT assay. It counts as functional, cell-based.
The nature of data set [14]: Antiproliferative activity against human U87G cells assessed as reduction in cell viability incubated for 72 hrs by MTT assay. It counts as functional, cell-based.
The test system of data set [15] is HeLa. Description: Antiproliferative activity against human HeLa cells assessed as reduction in cell viability by MTT assay. It counts as functional, cell-based.
Data set [16] concerns NCI-H292. Description: Antiproliferative activity against human NCI-H292 cells assessed as reduction in cell viability by MTT assay. It counts as functional, cell-based.
Data set [17] deals with HCT-116. Description: Antitumor activity against human HCT-116 cells assessed as reduction in cell viability incubated for 72 hrs by MTT assay. Conditions: HCT-116, 72 h. It counts as functional, cell-based.
The test system of data set [18] is K562. Description: Antitumor activity against human K562 cells assessed as reduction in cell viability incubated for 72 hrs by MTT assay. It counts as functional, cell-based. The note with it: K562, 72 h.

As to `CCc1n(CC(=O)O[C@@H]2C[C@H](C)CC[C@H]2C(C)C)c2ccccc2[n+]1C`, the IC50 – broadly, the concentration that inhibits the measured activity by half – in data set [1] came out at 150 nM. Take `CN1C(=O)C(Cc2ccc3ccccc3c2)N=C(c2ccc(O)cc2)c2cc(Cl)ccc21` (configuration not stated): the EC50 – broadly, the concentration giving half of the maximal effect – in [2] was determined as 3100 nM.

As for `CC[C@](C)(NC(=O)[C@@H]1CCCCN1C(=O)C(C)(C)NC(=O)[C@@H]1CCCCN1C(C)=O)C(=O)NC(C)(C)C(=O)N[C@@H](CC(C)C)C(=O)NCCC(=O)NCC(=O)NC(C)(C)C(=O)NC(C)(C)C(=O)N1CCCC[C@H]1C(=O)NC(C)(C)C(=O)N[C@@H](C)C(=O)N[C@@H](CC(C)C)C(=O)NC(C)(C)C(=O)N[C@@H](CC(C)C)CN1CCC[N+]2=C1CCC2` (Ac-[Pip][Aib][Pip][Iva][Aib]L[βAla]G[Aib][Aib][Pip][Aib]AL[Aib]-X3), the IC50 in data set [3] was 5 nM. As for `CC[C@@H](O)C[C@@H]1O[C@@]2(CC[C@@H]1C)C[C@H]1C[C@H](CC[C@@H](CC)/C=C/C=C/CCC[C@@](C)(O)[C@H](O)C[C@H](O)C[C@@H](O)[C@@H](C)[C@H](O)[C@@H](CC)/C=C/C(=O)O1)O2`, the IC50 in data set [4] turned out to be 8200 nM; in data set [5] it was 1000 nM; in data set [6], 5800 nM. For the molecule `CC[C@H](C)[C@H](NC(=S)[C@H](C)NC(=O)[C@H](C)NC(=S)[C@H](CCSC)NC(=S)[C@@H](NC(=O)C(C)=O)C(C)C)C(=S)N[C@@H](C)C(=O)N[C@H]1C(=O)N[C@@H](C(C)C)C(=O)N[C@@H](C)C(=O)N[C@@H](Cc2ccc(OC)cc2)C(=O)N[C@@H](C(O)c2cn(C)c[n+]2C)C(=O)N/C=C\SC1C` (some centres not stated), the IC50 in data set [7] came to 610 nM; in [8], 5080 nM; in [9], 1830 nM; in [10], 4980 nM. For the molecule `CC(C)[C@@H]1CC[C@@H](C)C[C@H]1OC(=O)Cn1c(-c2cccc(C(F)(F)F)c2)[n+](C)c2ccccc21`, the IC50 in data set [1] came to 470 nM.

On to `CCC[C@H](O)[C@@H](C)C(=O)NC/C=C\C[C@@H](C)[C@@H](O)[C@H](C)[C@@H](O)C/C=C\C[C@H](C)[C@H]1Cc2cc(OC)cc(O)c2C(=O)O1`, for which, in [11], the IC50 is greater than 1 µg/mL. On to `CO[C@H]1[C@H](O[C@@H]2C[C@@H]3C[C@H](OCCCC=O)[C@@]4(O)C[C@H](C[C@H](O)[C@@H]5C[C@H](C)[C@H](/C=C\C=C\[C@H](C)C[C@H](C2)O3)O5)OC4=O)O[C@@H](C)[C@H](O)[C@H]1O`, for which the IC50 is 54 nM in [12], 84 nM in data set [13] and 61 nM in data set [14].

In the case of `COC[C@@H](C[C@H]1O[C@@](O)([C@H](O)[C@@H]2C[C@H](OC)[C@@H](O)CC/C=C(C)/C=C/[C@@H](O[C@@H]3O[C@@H](C)[C@H](OC)[C@@H](OC(=O)CCC(=O)O)[C@@H]3O)[C@H](C)/C=C(C)/C=C(C)/C=C(\C)C(=O)O2)[C@H](C)[C@@H](O)[C@H]1C)O[C@H]1C[C@](C)(O)[C@@H](O[C@H]2C[C@@H](OC)[C@H](O)[C@@H](C)O2)[C@H](C)O1`, the IC50 in [15] was found to be 260 nM; in [16] it was 82 nM. As to `CC[C@](C)(NC(=O)[C@H](CC(C)C)NC(=O)[C@H](C)NC(=O)C(C)(C)NC(=O)[C@@H]1CCCCN1C(=O)C(C)(C)NC(=O)C(C)(C)NC(=O)CNC(=O)CCNC(=O)[C@H](CC(C)C)NC(=O)C(C)(C)NC(=O)[C@](C)(CC)NC(=O)[C@@H]1CCCCN1C(=O)C(C)(C)NC(=O)[C@@H]1CCCCN1C(C)=O)C(=O)N[C@@H](CC(C)C)C[N+]1=C2CCCN2CCC1` [EFRAPEPTIN G] (Ac-[Pip][Aib][Pip][Iva][Aib]L[βAla]G[Aib][Aib][Pip][Aib]AL[Iva]-X4), the IC50 in data set [3] came to 9 nM.

For `CCC(=O)[C@@H](C)[C@H](OC(C)=O)[C@@H](C)/C=C/C(=O)O[C@@H]1[C@H](C)[C@H](CC[C@H](/C=C/C=C/C[C@@H](C)[C@H](OC(C)=O)[C@@]2(C)OC=C(C)C2=O)CC)O[C@]2(CC[C@H](C)[C@H](C[C@@H](C)OC(C)=O)O2)[C@H]1C`, the IC50 was 3100 nM in [17] and 900 nM in data set [18].

Consider `CO[C@H]1[C@H](O[C@@H]2C[C@@H]3C[C@H](O)[C@]4(O)C(=O)O[C@@H](C[C@H](O)[C@@H]5C[C@H](C)[C@H](/C=C\C=C\[C@H](C)C[C@H](C2)O3)O5)[C@H]4O)O[C@@H](C)[C@H](OCCCC=O)[C@H]1OCCCC=O`, for which the IC50 in data set [12] and in data set [14] was greater than 3000 nM throughout.
